“Also recorded” adds a separate entry of the source.
Assays:
OTR = OTR expression in P19 cells (immunocytochemistry, Western blot, RT-PCR); assay type: cell-based, mouse; conditions: for OTR expression (protein and mRNA) after treatment: DMSO 0.5%, OT 10^−7 M or OTA 10^−7 M alone; for early OTR induction (RT-PCR): second day of differentiation protocol, preliminary results
Method: (§1) For immunocytofluorescence studies, cells were grown onto glass coverslips coated with 0.1% gelatin. They were then fixed by 20-min incubation in PBS containing 4% paraformaldehyde, rinsed in PBS and stored at 4° C. in this buffer until used. All subsequent steps of permeabilization, washing and incubation with antibodies were performed at room temperature. Fixed cells were permeabilized for 10 min in PBS containing 0.005% saponin, blocked for 60 min in PBS-BSA-saponin (PBS containing 1% bovine serum albumin and 0.005% saponin), incubated for 45 min with the primary antibody diluted 1/50 and for 45 min with a fluorescein-conjugated swine anti-goat IgG antibody (Biosource International, Camarillo, Calif.) diluted 1/1000. PBS-BSA-saponin was used for washing between incubations and antibodies were diluted in the same buffer but containing 1.5% normal swine serum (Jackson Immuno Research Laboratories Inc., West Grove, Pa.). Coverslips were mounted in PBS containing 50% glycerol, and immediately examined under the microscope. The primary antibodies were all from Santa Cruz Biotechnology, Inc. (Santa Cruz, Calif.) and produced in goat: antibody C-20 against OT receptor (OTR), antibody K-16 against sarcomeric myosin heavy chain (MHC), and antibody N-19 against dihydropyridine receptor-alphal (DHPR-alphal).
Total cellular RNA was extracted with TRIzol® Reagent (Invitrogen Life Technologies, Burlington, Ontario, Canada), and poly(A)^+mRNA was affinity purified from 200 μg of total RNA onto Oligotex® mRNA columns (Qiagen, Mississauga, Ontario, Canada), as per the manufacturers' instructions. First-strand cDNA was synthesized in a final volume of 40 μl containing first-strand buffer, 3 μg of cellular RNA, 4 μl of hexanucleotide primers (Amersham-Pharmacia, Baie d'Urfé, Quebec, Canada), and avian myeloblastosis virus reverse transcriptase (12 units/μg RNA; Invitrogen). First-strand cDNA (5 μl) was then used for PCR amplification with OTR, ANP or GAPDH exon-specific oligonucleotide primers in a Robocycler Gradient 40 thermocycler (Stratagene, La Jolla, Calif.). Sequences of mouse OTR and ANP genes have been described (26, 34). Conditions for RT-PCR analysis of mouse OTR were adapted from Wagner et al. (6, 7). For all PCR studies the number of cycles used was within the linear range of amplification. The OTR sense and antisense primers were respectively the 22-bp 5′-[…]-3′ (SEQ ID NO:9) and the 23-bp 5′-[…]-3′ (SEQ ID NO:10). Amplification was performed over 32 cycles, each involving 1 min at 94° C., 1.5 min at 62° C. and 1.5 min at 72° C., and was terminated by a 5-min final extension at 72° C. The ANP antisense and sense primers were respectively the 24-bp 5′-[…]-3′ (SEQ ID NO:11) and the 20-bp 5′-[…]-3′ (SEQ ID NO:12). Amplification was performed over 25-30 cycles, each involving 1 min at 94° C., 1 min at 65° C. and 3 min at 72° C., and was terminated by a 5-min final extension at 72° C. The amplification of GAPDH mRNA, a constitutively and ubiquitously expressed gene, served as an internal standard for RT-PCR analysis. The 23-bp antisense primer 5′-[…]-3′ (SEQ ID NO:13) and the 23-bp sense primer 5′-[…]-3′ (SEQ ID NO:14) were used. Amplification was performed over 23 cycles, each involving 1 min at 94° C., 1.5 min at 59° C. and 2 min at 72° C.
Cells were collected by scraping, homogenized in sucrose buffer (20 mM Hepes/Tris, pH 7.4, containing 250 mM sucrose and 20 μg/ml of the protease inhibitor phenylmethylsulfonyl fluoride), then centrifuged at 3000 g for 10 min at 4° C. to remove debris. The supernatants were centrifuged at 100 000 g for 45 min at 4° C., and the pellets were resuspended in sucrose buffer for analysis of protein content by a modified Bradford assay (30). […]

ANP mRNA = assay: RT-PCR analysis of ANP gene transcript in P19 cultures; assay type: cell-based, mouse; conditions: for ANP mRNA level compared to undifferentiated cells: day 14 of differentiation
Method: Total cellular RNA was extracted with TRIzol® Reagent (Invitrogen Life Technologies, Burlington, Ontario, Canada), and poly(A)^+mRNA was affinity purified from 200 μg of total RNA onto Oligotex® mRNA columns (Qiagen, Mississauga, Ontario, Canada), as per the manufacturers' instructions. […] Invitrogen). First-strand cDNA (5 μl) was then used for PCR amplification with OTR, ANP or GAPDH exon-specific oligonucleotide primers in a Robocycler Gradient 40 thermocycler (Stratagene, La Jolla, Calif.). Sequences of mouse OTR and ANP genes have been described (26, 34). Conditions for RT-PCR analysis of mouse OTR were adapted from Wagner et al. (6, 7). For all PCR studies the number of cycles used was within the linear range of amplification. The OTR sense and antisense primers were respectively the 22-bp [NT] ID NO:9) and the 23-bp [NT] ID NO:10). […] The ANP antisense and sense primers were respectively the 24-bp [NT] ID NO:11) and the 20-bp [NT] ID NO:12). […] The amplification of GAPDH mRNA, a constitutively and ubiquitously expressed gene, served as an internal standard for RT-PCR analysis. The 23-bp antisense primer [NT] ID NO:13) and the 23-bp sense primer [NT] ID NO:14) were used.

P19 cells [1] = assay: Cardiac differentiation of P19 cell aggregates, scored by beating cell colonies; assay type: cell-based, mouse; conditions: for day by which beating cell colonies were present in all 24 independently growing cultures: aggregates treated 4 days with 10^−7 M OT or 0.5% DMSO, 24-well plate
From the text: P19 cells were propagated and differentiated according to the procedures of Rudnicki and McBurney (28), with minor modifications. Undifferentiated cells were propagated in complete medium containing α-modified Eagle's minimal essential medium (α-MEM; GIBCO-BRL Burlington, Ontario, Canada) supplemented with 2.5% heat-inactivated fetal bovine serum, 7.5% heat-inactivated donor bovine serum (Cansera International, Rexdale, Ontario, Canada), and the antibiotics (GIBCO-BRL) penicillin G (50 U/ml) and streptomycin (50 μg/ml). The cultures were maintained at 37° C. in a humidified atmosphere of 5% CO2 and passaged every 2 days. The general protocol used for differentiation of P19 cells is depicted in FIG. 1.
(§2) Briefly, 0.25×10^6 cells were allowed to aggregate for 4 days in non-adhesive bacteriological grade petri dishes (6-cm diameter) containing 5 ml complete medium, in the presence of 0.5% (v/v) DMSO (Sigma Chemical Co., St. Louis, Mo.). At day 2 of aggregation, the inducing culture medium was replenished. At day 4, aggregates were transferred to tissue culture grade vessels (10-cm diameter dishes or 24/48-well plates), and cultured in complete medium in the absence of differentiation-inducing agent. Aggregation was also done in the absence of DMSO, and in the presence of 10^−7 M OT and/or 10^−7 OTA ([d(CH2)5^1,Tyr(Me)^2,Thr^4,Orn^8,Tyr-NH2^9]-vasotocin), both from Peninsula Laboratories Inc. (San Carlos, Calif.). The cell populations were analyzed at days 10-14 of the entire differentiation protocol, at a time cardiac cells normally beat synchronously.
P19 cells were subjected to the cardiac differentiation protocol depicted in Example 1, except that different concentrations of OT were used during the four days of aggregation. At day 4, aggregates were transferred to 24-well plates and scored for the appearance of beating cell colonies. In addition, cells were collected at day 14 for analysis of OTR or OT expression by RT-PCR. Cell aggregates were also treated with RA and/or T3.

P19 cells [2] = conditions: cited from earlier work
P19 cells [3] = assay: Rhodamine123 retention in P19 cultures; assay type: cell-based, mouse; conditions: day 10 of differentiation, p<0.001
Method: For morphological examination, cells were grown directly onto the plastic surface of tissue culture vessels. For staining with rhodamine^123 (Sigma), day-4 aggregates were distributed in 24-well culture plates and grown until day 8. Then, dye was added to the culture medium at a final concentration of 1 μg/ml for 45 min, and afterwards, the cells were washed extensively with phosphate-buffered saline (PBS) and cultured for 48 h in the absence of the dye. Dye retained by cells in each well was measured by a fluorescence microplate reader (SPECTRA Max Gemini®, Molecular Devices, Sunnyvale, Calif.) at 505 nm for excitation and 534 nm for emission.

[4] = test system: sarcomeric MHC and DHPR-alphal; assay: Immunocytofluorescence of cardiac muscle markers in P19 cells; assay type: cell-based, mouse; conditions: for MHC and DHPR-alphal immunoreactive foci: aggregates treated day 0-4, stained day 14
Method: as §1

P19 cells [5] = assay: OT production by induced P19 cells (RIA); assay type: cell-based, mouse; conditions: day 14, 4 h in serum-free medium
Method: P19 cells induced with DMSO or OT were cultured until day 14 in absence of inducer. Cells were washed carefully with PBS and incubated for 4 h in serum-free α-MEM supplemented with protease inhibiors (aprotinin, 30 μg/mL and soybean trypsin inhibitor (SBTI), 100 μg/mL). Cells and media were collected, extracted on Sep-Pak C18-cartridges (Waters Canada, Mississauga, Ontario), lyophilized, resuspended in a minimal volume of α-MEM and assayed by RIA as described (8). RIA was also done on undiluted serum combination used for P19 cell culture (1 part of fetal bovine serum and 3 parts of donor bovine serum).

P19 cells [6] = assay: Mean diameter of P19 cell aggregates; assay type: cell-based, mouse; conditions: data not shown
Method: as §2

[7] = target: oxytocin receptor (OTR) of P19 mouse embryonal carcinoma cells (mouse) (UniProt P97926); assay: cell-based or functional assay; conditions: scale: cultures with beating colonies
Sequence of oxytocin receptor (OTR) of P19 mouse embryonal carcinoma cells (mouse) (P97926 whole entry): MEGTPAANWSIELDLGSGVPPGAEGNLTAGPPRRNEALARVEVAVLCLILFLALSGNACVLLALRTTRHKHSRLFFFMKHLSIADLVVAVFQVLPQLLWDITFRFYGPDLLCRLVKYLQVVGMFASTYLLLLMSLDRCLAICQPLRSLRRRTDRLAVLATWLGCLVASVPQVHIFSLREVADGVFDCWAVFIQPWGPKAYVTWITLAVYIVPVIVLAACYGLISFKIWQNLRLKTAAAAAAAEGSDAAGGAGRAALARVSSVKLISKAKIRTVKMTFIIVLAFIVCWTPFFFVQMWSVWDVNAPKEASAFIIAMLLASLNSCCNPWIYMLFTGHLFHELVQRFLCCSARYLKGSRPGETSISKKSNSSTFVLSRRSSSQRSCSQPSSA

## [d(CH2)5^1,Tyr(Me)^2,Thr^4,Orn^8,Tyr-NH2^9]-vasotocin [OTA]
OTR; OT 10^−7 M + OTA 10^−7 M, day 14
  effect of OTA on OT-induced OTR upregulation: inhibited OT-induced OTR upregulation
OTR; day 14
  OTR expression (protein and mRNA) after treatment: did not upregulate OTR expression by itself
OTR
  early OTR induction (RT-PCR): no effect on OTR expression
ANP mRNA; DMSO + OTA day 0-4, day 14
  effect of OTA on DMSO-induced ANP expression: not statistically significant
ANP mRNA; OT + OTA day 0-4, day 14, p<0.05
  effect of OTA on OT-induced ANP expression: prevented OT-induced upregulation of ANP expression
P19 cells [1]; 30 nM T3 + 10^−7 M OTA
  effect of OTA on T3-induced cardiac differentiation: abolished cardiac differentiation induced by T3; also recorded: completely inhibits P19 cell differentiation into cardiomyocytes
P19 cells [1]; 10^−7 M OTA + 0.5% DMSO
  effect of OTA on DMSO-induced cardiac differentiation (beating cell colonies): abolished the cardiogenic action of DMSO; also recorded: completely inhibits P19 cell differentiation into cardiomyocytes
P19 cells [1]; 10^−7 M OTA + 10^−7 M OT
  beating cells with OTA in combination with OT: no beating cells were seen
P19 cells [1]; 10^−7 M OTA alone
  beating cells with OTA in place of OT: no beating cells were seen
P19 cells [1]; RA 10^−7 M + OTA 10^−7 M
  effect of OTA on RA-induced cardiac differentiation: completely inhibits RA-induced cardiac differentiation; also recorded: completely inhibits P19 cell differentiation into cardiomyocytes

## N[C@@H](Cc1cc(I)c(Oc2ccc(O)c(I)c2)c(I)c1)C(=O)O [T3, triiodothyronine]
P19 cells [2]; Rodriguez et al., 1994
  optimal effective concentration for cardiomyogenic differentiation of P19 cells: 30 nM

## oxytocin [OT]
P19 cells [3]
  rhodamine123 retention, OT compared with DMSO: significantly higher after OT than DMSO treatment
[4]
  MHC and DHPR-alphal immunoreactive foci: numerous, intense, immunoreactive foci
[4]; not presented
  6-day versus 4-day OT treatment of aggregates (myocyte immunological markers): no difference with the 4-day treatment
P19 cells [5]
  OT release by induced P19 cells: release OT in their culture medium
OTR; day 14
  OTR expression (protein and mRNA) after treatment: increased OTR expression
OTR; differentiated populations at day 14
  OTR mRNA expression versus OT concentration: concentration-dependent
OTR
  early OTR induction (RT-PCR): most potent OTR inducer
ANP mRNA
  ANP mRNA level compared to undifferentiated cells: significantly upregulated
P19 cells [1]; 4 days of aggregation with different OT concentrations
  OT concentration range over which differentiation into beating cardiomyocytes is concentration-dependent: 10^−6 to 10^−9 M
P19 cells [1]; P19 cell aggregates treated day 0-4 with 10^−7 M OT
  formation of rhythmically-beating cells: induced the formation of rhythmically-beating cells
P19 cells [1]
  day by which beating cell colonies were present in all 24 independently growing cultures: 8 days
P19 cells [1]; final OT concentration of 10^−12 M
  cardiac differentiation at the OT concentration supplied by serum in culture medium: not sufficient to induce cardiac differentiation
P19 cells [6]
  reduction of mean aggregate diameter versus untreated counterparts: 1.5 fold

## C[S+](C)[O-] [DMSO]
[4]
  MHC and DHPR-alphal immunoreactive foci: numerous, intense, immunoreactive foci
P19 cells [5]
  OT release by induced P19 cells: release OT in their culture medium
P19 cells [2]; DMSO-induced
  efficiency of cardiac differentiation: ≤ 15%
OTR; day 14
  OTR expression (protein and mRNA) after treatment: increased OTR expression
ANP mRNA
  ANP mRNA level compared to undifferentiated cells: at similar level
P19 cells [1]
  day by which beating cell colonies were present in all 24 independently growing cultures: 12 days
P19 cells [6]
  reduction of mean aggregate diameter versus untreated counterparts: 1.5 fold

## oxytocin (from UniProt P01178 20-28) (peptide)
[7]
  production of beating cell colonies (P19 cardiomyocyte differentiation, 24-well plate): 24
